Measured values as given in ChEMBL document CHEMBL1129124, “Thromboxane modulating agents. 2. Thromboxane receptor antagonists derived from the thromboxane synthase inhibitor dazmegrel” (Bioorg Med Chem Lett, 1996).

Legend:
Thromboxane A2 receptor = target: T1, Thromboxane A2 receptor (Rattus norvegicus, UniProt P34978); experiment: Compound was tested for TXA2 receptor antagonism by measuring its ability to inhibit contraction of rat aorta induced by the stable TXA2 agonist U-46,619 at 1 umol; assay type: functional, tissue-based; conditions: read-out: pA2 (converted)
T1 sequence (P34978 whole entry): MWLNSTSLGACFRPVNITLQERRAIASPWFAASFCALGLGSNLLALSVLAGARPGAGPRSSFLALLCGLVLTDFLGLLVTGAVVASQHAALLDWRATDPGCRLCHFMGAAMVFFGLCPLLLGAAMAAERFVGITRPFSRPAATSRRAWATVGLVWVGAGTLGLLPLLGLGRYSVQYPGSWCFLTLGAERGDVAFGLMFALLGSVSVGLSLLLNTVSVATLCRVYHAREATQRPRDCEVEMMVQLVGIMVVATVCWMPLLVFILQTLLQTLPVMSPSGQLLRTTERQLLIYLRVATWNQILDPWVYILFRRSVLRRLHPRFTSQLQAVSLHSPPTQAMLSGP

Thromboxane-A synthase = target: T2, Thromboxane-A synthase (Homo sapiens, UniProt P24557); experiment: Inhibitory activity against human platelet microsomal TXA2 synthase
T2 sequence (P24557 whole entry): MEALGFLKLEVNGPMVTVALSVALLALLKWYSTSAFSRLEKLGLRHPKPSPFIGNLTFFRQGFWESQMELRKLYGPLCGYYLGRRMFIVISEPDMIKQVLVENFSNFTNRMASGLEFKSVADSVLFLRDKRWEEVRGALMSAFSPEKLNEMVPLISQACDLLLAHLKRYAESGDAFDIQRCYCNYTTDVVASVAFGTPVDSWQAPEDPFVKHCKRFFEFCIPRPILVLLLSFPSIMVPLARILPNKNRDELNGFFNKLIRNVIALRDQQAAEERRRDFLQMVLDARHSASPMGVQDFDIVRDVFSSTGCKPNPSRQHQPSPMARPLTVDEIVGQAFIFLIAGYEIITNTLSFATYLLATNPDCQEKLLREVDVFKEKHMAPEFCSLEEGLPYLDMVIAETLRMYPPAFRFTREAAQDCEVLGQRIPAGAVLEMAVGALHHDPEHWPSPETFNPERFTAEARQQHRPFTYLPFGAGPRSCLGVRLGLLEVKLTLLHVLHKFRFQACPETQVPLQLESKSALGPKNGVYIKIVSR

Kb (Thromboxane A2 receptor) [nM]	IC50 (Thromboxane-A synthase) [nM]	SMILES
6.31	34	O=C(O)CCn1cc(Cn2ccnc2)c2cc(NS(=O)(=O)c3ccc(F)cc3)ccc21
0.269	–	Cc1ccc(S(=O)(=O)Nc2ccc3c(c2)c(Cc2ccc(F)cc2)cn3CCC(=O)O)cc1
3800	19	Cc1c(Cn2ccnc2)c2cc(NS(=O)(=O)c3ccc(F)cc3)ccc2n1CCC(=O)O
1.41	48	O=C(O)CCn1cc(Cc2cccnc2)c2cc(NS(=O)(=O)c3ccc(F)cc3)ccc21
> 1000	–	Cc1c(Cn2ccnc2)c2ccccc2n1CCC(=O)O [DAZMEGREL]
0.676	–	O=C(O)CCn1cc(Cc2ccc(F)cc2)c2cc(NS(=O)(=O)c3ccccc3)ccc21
0.479	–	O=C(O)CCn1cc(Cc2ccc(F)cc2)c2cc(NS(=O)(=O)c3ccc(F)cc3)ccc21
0.234	–	O=C(O)CCn1cc(Cc2ccc(F)cc2)c2cc(NS(=O)(=O)c3ccc(Cl)cc3)ccc21
0.174	–	COc1ccc(S(=O)(=O)Nc2ccc3c(c2)c(Cc2ccc(F)cc2)cn3CCC(=O)O)cc1
2.75	–	O=C(O)CCn1ccc2cc(NS(=O)(=O)c3ccc(Cl)cc3)ccc21
100	–	O=C(O)CCCc1ccc(NS(=O)(=O)c2ccc(Cl)cc2)cc1
3.72	–	O=C(O)CCn1ccc2cc(NS(=O)(=O)c3ccc(F)cc3)ccc21
